Laboratory results taken from DBAASP.
In brackets after ≈: the same amount, converted by molar mass. Several values for one entry are separate records, joined by “and”; a condition that tells them apart may be missing. Equal entries are not always repeated. Each block holds one molecule with its values, some of them ahead of it.

How the values were obtained:
Assay in all cases: ≥ marks a high value that may be exact or a test limit, other limits are often not marked, values filed in µg/mL are converted to µM
[1] = tested on: Vibrio alginolyticus CGMCC 1.1833
[2] = tested on: Micrococcus luteus CGMCC 1.0634
[3] = tested on: Staphylococcus aureus CGMCC 1.363
[4] = tested on: Candida albicans CGMCC 2.2411
[5] = tested on: Shigella flexneri CGMCC 1.1868
[6] = tested on: Pseudomonas fluorescens CGMCC 1.0032
[7] = tested on: Staphylococcus epidermidis CGMCC 1.2429
[8] = tested on: Vibrio fluvialis CGMCC 1.1609
[9] = tested on: Aeromonas hydrophila CGMCC 1.0927
[10] = tested on: Aeromonas sobria
[11] = tested on: Edwardsiella tarda
[12] = tested on: Vibrio harveyi CGMCC 1.1593
[13] = tested on: Micrococcus luteus CGMCC 1.634
[14] = tested on: Corynebacterium glutamicum CGMCC 1.1886
[15] = tested on: Escherichia coli MC1061
[16] = tested on: Vibrio parahaemolyticus CGMCC 1.1615
[17] = tested on: Bacillus subtilis CGMCC 1.108
[18] = tested on: Acinetobacter baumannii
[19] = tested on: Burkholderia cepacia ATCC 25416
[20] = tested on: Acinetobacter baumannii ATCC 19606
[21] = tested on: Streptococcus pyogenes
[22] = tested on: Klebsiella pneumoniae
[23] = tested on: Pseudomonas aeruginosa ATCC 27853
[24] = tested on: Escherichia coli O18:K1:H7
[25] = tested on: Listeria monocytogenes 10403s
[26] = tested on: Staphylococcus aureus ATCC 29213
[27] = tested on: Stenotrophomonas maltophilia
[28] = tested on: Streptococcus pneumoniae ATCC 49619
[29] = tested on: Staphylococcus aureus
[30] = tested on: Enterococcus faecium
[31] = tested on: Salmonella typhimurium
[32] = tested on: Pseudomonas aeruginosa PA14
[33] = tested on: Serratia marcescens ATCC 8100
[34] = tested on: Pseudomonas aeruginosa 547
[35] = tested on: Pseudomonas aeruginosa
[36] = tested on: Klebsiella pneumoniae ATCC 27736
[37] = tested on: Escherichia coli ATCC 25922
[38] = tested on: Enterococcus faecium 091299
[39] = tested on: Staphylococcus haemolyticus
[40] = tested on: Pseudomonas aeruginosa 091412
[41] = tested on: Escherichia coli 091335
[42] = tested on: Staphylococcus aureus ATCC 6538
[43] = tested on: Streptococcus equi subsp. zooepidemicus ATCC 43079
[44] = tested on: Proteus vulgaris
[45] = tested on: Klebsiella oxytoca
[46] = tested on: Nocardia asteroides
[47] = tested on: Candida glabrata 090902
[48] = tested on: Streptococcus agalactiae ATCC 27956
[49] = tested on: Streptococcus dysgalactiae subsp. dysgalactiae ATCC 27957
[50] = tested on: Staphylococcus aureus ATCC 2592
[51] = tested on: Cutibacterium acnes ATCC 11827
[52] = tested on: Bacillus cereus ATCC 10876
[53] = tested on: Candida tropicalis
[54] = tested on: Pseudomonas aeruginosa 091411
[55] = tested on: Enterococcus faecalis ATCC 29212
[56] = tested on: Candida albicans
[57] = tested on: Proteus mirabilis

MIC [1]: ≥ 48 µM
MIC [2]: 1.06 µM (≈ 3.16 µg/mL)
MIC [3]: 2.12 µM (≈ 6.33 µg/mL)
MIC [4]: ≥ 33.9 µM
MIC [5]: 1.06 µM (≈ 3.16 µg/mL)
MIC [6]: 1.06 µM (≈ 3.16 µg/mL)
MIC [7]: 2.12 µM (≈ 6.33 µg/mL)
MIC [8]: ≥ 48 µM
MIC [9]: 1.06 µM (≈ 3.16 µg/mL)
MIC [10]: 4.24 µM (≈ 12.7 µg/mL)
MIC [11]: ≥ 48 µM
MIC [12]: ≥ 48 µM
MIC [13]: 1.06 µM (≈ 3.16 µg/mL)
MIC [14]: 1.06 µM (≈ 3.16 µg/mL)
MIC [15]: 2.12 µM (≈ 6.33 µg/mL)
MIC [17]: 2.12 µM (≈ 6.33 µg/mL)
Structure (SMILES): CC[C@H](C)[C@H](NC(=O)[C@H](CCCN=C(N)N)NC(=O)CNC(=O)[C@@H](NC(=O)[C@@H]1CCCN1C(=O)[C@H](Cc1ccccc1)NC(=O)[C@H](CCC(N)=O)NC(=O)[C@H](CC(C)C)NC(=O)CNC(=O)[C@H](C)NC(=O)[C@H](CCCN=C(N)N)NC(=O)[C@H](C)NC(=O)[C@H](CO)NC(=O)[C@H](CCCN=C(N)N)NC(=O)[C@H](CO)NC(=O)[C@@H](NC(=O)[C@H](C)NC(=O)[C@H](CCCCN)NC(=O)[C@H](C)NC(=O)[C@H](CCCCN)NC(=O)[C@H](C)NC(=O)[C@@H](N)CCCCN)C(C)C)C(C)C)C(=O)N[C@@H](Cc1cnc[nH]1)C(=O)N[C@@H](CCCN=C(N)N)C(=O)N[C@@H](Cc1cnc[nH]1)C(=O)N[C@@H](CC(C)C)C(=O)N[C@@H](CCCCN)C(=O)O [KAKAKAVSRSARAGLQFPVGRIHRHLK]
MIC [16]: ≥ 48 µM

Structure (SMILES): CSCC[C@@H](NC(=O)[C@@H](Cc1c[nH]c2ccccc12)NC(=O)CNC(=O)CNC(=O)[C@@H](CCCN=C(N)N)NC(=O)[C@@H](CCCN=C(N)N)NC(=O)[C@@H](CCCN=C(N)N)NC(=O)[C@@H](CCC(N)=O)NC(=O)[C@@H](CCCN=C(N)N)NC(=O)[C@@H](CCCN=C(N)N)NC(=O)[C@@H](CCCCN)NC(=O)[C@@H](CCCCN)NC(=O)[C@@H](CCCN=C(N)N)NC(=O)CN)C(=O)N[C@H](Cc1c[nH]c2ccccc12)C(=O)N[C@@H](C(=O)N[C@@H](C(=O)N[C@H](CC(N)=O)C(=O)N[C@H](CC(C)C)C(=O)N[C@H](CCCN=C(N)N)C(=O)N[C@@H](C(=O)N[C@H](CC(=O)O)C(=O)O)[C@H](C)O)[C@H](C)O)C(C)C [GRKKRRQRRRGGWMWVTNLRTD]
MIC [18]: 5.69 µM (≈ 16 µg/mL)
MIC [19]: ≥ 91 µM
MIC [20]: 2.84 µM (≈ 8 µg/mL)
MIC [21]: 2.84 µM (≈ 8 µg/mL)
MIC [22]: > 91 µM
MIC [23]: 22.7 µM (≈ 64 µg/mL)
MIC [24]: 22.7 µM (≈ 64 µg/mL)
MIC [25]: ≥ 45.5 µM
MIC [26]: 45.5 µM (≈ 128 µg/mL)
MIC [27]: 5.69 µM (≈ 16 µg/mL)
MIC [28]: 22.7 µM (≈ 64 µg/mL)
MIC [29]: 45.5 µM (≈ 128 µg/mL)
MIC [30]: 22.7 µM (≈ 64 µg/mL)
MIC [31]: 22.7 µM (≈ 64 µg/mL)
MIC [32]: 11.4 µM (≈ 32 µg/mL)
MIC [33]: ≥ 91 µM
MIC [34]: ≥ 45.5 µM
MIC [35]: > 45.5 µM
MIC [36]: ≥ 91 µM
MIC [37]: 11.4 µM (≈ 32 µg/mL)

MIC [38]: 3.07 µM (≈ 9.4 µg/mL)
MIC [40]: ≥ 32.7 µM
MIC [41]: 24.5 µM (≈ 75 µg/mL)
MIC [22]: > 32.7 µM
MIC [42]: 13.4 µM (≈ 41 µg/mL)
MIC [10]: 3.07 µM (≈ 9.4 µg/mL)
MIC [43]: 13.1 µM (≈ 40.1 µg/mL)
MIC [44]: ≥ 32.7 µM
MIC [45]: ≥ 32.7 µM
MIC [46]: 0.392 µM (≈ 1.2 µg/mL)
MIC [47]: ≥ 32.7 µM
MIC [48]: 13.1 µM (≈ 40.1 µg/mL)
MIC [49]: 13.1 µM (≈ 40.1 µg/mL)
MIC [50]: 0.196 µM (≈ 0.6 µg/mL)
MIC [27]: 3.07 µM (≈ 9.4 µg/mL)
MIC [29]: 0.392 µM and > 0.196 µM
MIC [51]: 1.54 µM (≈ 4.7 µg/mL)
MIC [52]: 13.1 µM (≈ 40.1 µg/mL)
MIC [53]: ≥ 32.7 µM
MIC [54]: 6.14 µM (≈ 18.8 µg/mL)
MIC [55]: 9.8 µM (≈ 30 µg/mL)
MIC [56]: 3.07 µM (≈ 9.4 µg/mL)
MIC [37]: 2.9 µM (≈ 8.88 µg/mL)
MIC [57]: ≥ 32.7 µM
Structure (SMILES): CC[C@H](C)[C@H](NC(=O)[C@H](CCSC)NC(=O)[C@H](CC(C)C)NC(=O)[C@H](Cc1ccccc1)NC(=O)[C@H](CCC(N)=O)NC(=O)[C@H](Cc1ccc(O)cc1)NC(=O)[C@H](CCCN=C(N)N)NC(=O)[C@@H](NC(=O)[C@@H](NC(=O)[C@@H](NC(=O)[C@H](CO)NC(=O)CNC(=O)[C@H](CCCN=C(N)N)NC(=O)[C@H](CCCN=C(N)N)NC(=O)[C@@H](N)CCCCN)C(C)C)[C@@H](C)O)[C@@H](C)O)C(=O)N[C@@H](Cc1cnc[nH]1)C(=O)N[C@@H](CC(C)C)C(=O)N[C@@H](CC(C)C)C(=O)N[C@@H](CCCN=C(N)N)C(=O)N1CCC[C@H]1C(=O)N[C@@H](CCCCN)C(=O)N[C@@H](CCCCN)C(=O)N[C@@H](CC(C)C)C(=O)N[C@@H](Cc1ccccc1)C(=O)N[C@@H](C)C(=O)O [KRRGSVTTRYQFLMIHLLRPKKLFA]
MIC [39]: 0.196 µM (≈ 0.6 µg/mL)
